Measurements published in ChEMBL document CHEMBL5303573, “Mapping human microbiome drug metabolism by gut bacteria and their genes” (Nature, 2019).

Columns and labels:
[1] = The drug is tested on Blautia luti strain: DSM14534 for biotransformation. The drug concentrations were measured before and after a 12-h incubation by liquid-chromatography-coupled mass spectrometry (LC–MS); format: ADME; parameters: dose 2 uM, timepoint 0 vs 12 hours; settings: 2 µM
[2] = roseburia intestinalis, 12 h, 2 µM
Description: The drug is tested on Roseburia intestinalis strain: L1-82 for biotransformation. The drug concentrations were measured before and after a 12-h incubation by liquid-chromatography-coupled mass spectrometry (LC–MS)

[3] = The drug is tested on Clostridium symbiosum strain: ATCC14940 for biotransformation. The drug concentrations were measured before and after a 12-h incubation by liquid-chromatography-coupled mass spectrometry (LC–MS); settings: 2 µM
[4] = The drug is tested on Eubacterium hallii strain: DSM3353 for biotransformation. The drug concentrations were measured before and after a 12-h incubation by liquid-chromatography-coupled mass spectrometry (LC–MS); settings: anaerobutyricum hallii, 2 µM
[5] = The drug is tested on Bacteroides fragilis strain: ATCC43859 for biotransformation. The drug concentrations were measured before and after a 12-h incubation by liquid-chromatography-coupled mass spectrometry (LC–MS); settings: 2 µM
[6] = The drug is tested on Parabacteroides merdae strain: ATCC43184 for biotransformation. The drug concentrations were measured before and after a 12-h incubation by liquid-chromatography-coupled mass spectrometry (LC–MS); settings: 2 µM
[7] = The drug is tested on Bacteroides pectinophilus strain: ATCC43243 for biotransformation. The drug concentrations were measured before and after a 12-h incubation by liquid-chromatography-coupled mass spectrometry (LC–MS); settings: 2 µM
[8] = limosilactobacillus reuteri cf48-3a, 12 h, 2 µM
Description: The drug is tested on Lactobacillus reuteri CF48-3A strain: BEI HM-102 for biotransformation. The drug concentrations were measured before and after a 12-h incubation by liquid-chromatography-coupled mass spectrometry (LC–MS)

[9] = anaerostipes sp., 12 h, 2 µM
Description: The drug is tested on Anaerostipes sp. strain: fecal isolate for biotransformation. The drug concentrations were measured before and after a 12-h incubation by liquid-chromatography-coupled mass spectrometry (LC–MS)

[10] = akkermansia muciniphila, 12 h, 2 µM
Description: The drug is tested on Akkermansia muciniphila strain: ATCC BAA-835 for biotransformation. The drug concentrations were measured before and after a 12-h incubation by liquid-chromatography-coupled mass spectrometry (LC–MS)

[11] = The drug is tested on Bacteroides uniformis strain: ATCC8492 for biotransformation. The drug concentrations were measured before and after a 12-h incubation by liquid-chromatography-coupled mass spectrometry (LC–MS); settings: 2 µM
[12] = bacteroides thetaiotaomicron, 12 h, 2 µM
Description: The drug is tested on Bacteroides thetaiotaomicron strain: 7330 for biotransformation. The drug concentrations were measured before and after a 12-h incubation by liquid-chromatography-coupled mass spectrometry (LC–MS)

[13] = bacteroides fragilis, 12 h, 2 µM
Description: The drug is tested on Bacteroides fragilis strain: 3397 (T10) for biotransformation. The drug concentrations were measured before and after a 12-h incubation by liquid-chromatography-coupled mass spectrometry (LC–MS)

[14] = The drug is tested on Clostridium scindens strain: ATCC35704 for biotransformation. The drug concentrations were measured before and after a 12-h incubation by liquid-chromatography-coupled mass spectrometry (LC–MS); settings: 2 µM
[15] = The drug is tested on Alistipes indistinctus strain: DSM22520 for biotransformation. The drug concentrations were measured before and after a 12-h incubation by liquid-chromatography-coupled mass spectrometry (LC–MS); settings: 2 µM
[16] = The drug is tested on Collinsella intestinalis strain: DSM13280 for biotransformation. The drug concentrations were measured before and after a 12-h incubation by liquid-chromatography-coupled mass spectrometry (LC–MS); settings: 2 µM
[17] = bacteroides stercoris, 12 h, 2 µM
Description: The drug is tested on Bacteroides stercoris strain: ATCC43183 for biotransformation. The drug concentrations were measured before and after a 12-h incubation by liquid-chromatography-coupled mass spectrometry (LC–MS)

[18] = The drug is tested on Subdoligranulum variabile strain: DSM15176 for biotransformation. The drug concentrations were measured before and after a 12-h incubation by liquid-chromatography-coupled mass spectrometry (LC–MS); settings: 2 µM
[19] = The drug is tested on Anaerococcus hydrogenalis strain: DSM7454 for biotransformation. The drug concentrations were measured before and after a 12-h incubation by liquid-chromatography-coupled mass spectrometry (LC–MS); settings: 2 µM
[20] = The drug is tested on Bacteroides coprophilus strain: DSM18228 for biotransformation. The drug concentrations were measured before and after a 12-h incubation by liquid-chromatography-coupled mass spectrometry (LC–MS); settings: 2 µM

Row | Bacterial Biotransformation [1] | Bacterial Biotransformation [2] | Bacterial Biotransformation [3] | Bacterial Biotransformation [4] | Bacterial Biotransformation [5] | Bacterial Biotransformation [6] | Bacterial Biotransformation [7] | Bacterial Biotransformation [8] | Bacterial Biotransformation [9] | Bacterial Biotransformation [10] | Bacterial Biotransformation [11] | Bacterial Biotransformation [12] | Bacterial Biotransformation [13] | Bacterial Biotransformation [14] | Bacterial Biotransformation [15] | Bacterial Biotransformation [16] | Bacterial Biotransformation [17] | Bacterial Biotransformation [18] | Bacterial Biotransformation [19] | Bacterial Biotransformation [20] | Compound
1 | Compound NOT metabolized | Compound NOT metabolized | Compound NOT metabolized | Compound NOT metabolized | Compound NOT metabolized | Compound NOT metabolized | Compound NOT metabolized | Compound NOT metabolized | Compound NOT metabolized | Compound NOT metabolized | Compound metabolized | Compound NOT metabolized | Compound NOT metabolized | Compound NOT metabolized | Compound NOT metabolized | Compound NOT metabolized | Compound NOT metabolized | Compound NOT metabolized | Compound NOT metabolized | Compound NOT metabolized | CC(=O)O[C@H]1C(=O)[C@@]2(C)[C@H]([C@H](OC(=O)c3ccccc3)[C@]3(O)C[C@H](OC(=O)[C@H](O)[C@@H](NC(=O)c4ccccc4)c4ccccc4)C(C)=C1C3(C)C)[C@]1(OC(C)=O)CO[C@@H]1C[C@@H]2O [PACLITAXEL]
2 | Compound NOT metabolized | Compound NOT metabolized | Compound NOT metabolized | Compound NOT metabolized | Compound NOT metabolized | Compound NOT metabolized | Compound NOT metabolized | Compound NOT metabolized | Compound NOT metabolized | Compound NOT metabolized | Compound NOT metabolized | Compound NOT metabolized | Compound NOT metabolized | Compound NOT metabolized | Compound NOT metabolized | Compound NOT metabolized | Compound NOT metabolized | Compound NOT metabolized | Compound NOT metabolized | Compound NOT metabolized | Cc1ccc(/C(=C\CN2CCCC2)c2ccccn2)cc1 [TRIPROLIDINE]
